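96-well plates; 48 h exposure; 5 concentrations. Endpoints by linear interpolation between flanking doses. Not reached: highest tested concentration assigned. TGI: total growth inhibition.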
Columns and labels:
Assay in all cases: NCI anticancer screen, dose series, 48 h
786-0 renal = system: 786-0 renal
A549 NSCLC = system: A549 NSCLC
ACHN renal = system: ACHN renal
BT-549 breast = system: BT-549 breast
CAKI-1 renal = system: CAKI-1 renal
CCRF-CEM leukemia = system: CCRF-CEM leukemia
COLO 205 colon = system: COLO 205 colon
DU-145 prostate = system: DU-145 prostate
EKVX NSCLC = system: EKVX NSCLC
HCT-116 colon = system: HCT-116 colon
HCT-15 colon = system: HCT-15 colon
HOP-62 NSCLC = system: HOP-62 NSCLC
HT29 colon = system: HT29 colon
IGROV1 ovarian = system: IGROV1 ovarian
K-562 leukemia = system: K-562 leukemia
KM12 colon = system: KM12 colon
LOX IMVI melanoma = system: LOX IMVI melanoma
M14 melanoma = system: M14 melanoma
MCF7 breast = system: MCF7 breast
MDA-MB-231 breast = system: MDA-MB-231 breast
MDA-MB-435 = system: MDA-MB-435
MOLT-4 leukemia = system: MOLT-4 leukemia
NCI-H226 lung = system: NCI-H226 lung
NCI-H23 lung = system: NCI-H23 lung
NCI-H460 lung = system: NCI-H460 lung
NCI/ADR-RES ovarian = system: NCI/ADR-RES ovarian
OVCAR-3 ovarian = system: OVCAR-3 ovarian
OVCAR-5 ovarian = system: OVCAR-5 ovarian
OVCAR-8 ovarian = system: OVCAR-8 ovarian
RXF 393 renal = system: RXF 393 renal
SF-268 CNS = system: SF-268 CNS
SF-295 CNS = system: SF-295 CNS
SK-MEL-2 melanoma = system: SK-MEL-2 melanoma
SK-MEL-28 melanoma = system: SK-MEL-28 melanoma
SK-MEL-5 melanoma = system: SK-MEL-5 melanoma
SK-OV-3 ovarian = system: SK-OV-3 ovarian
SN12C renal = system: SN12C renal
SNB-19 CNS = system: SNB-19 CNS
SNB-75 CNS = system: SNB-75 CNS
SR leukemia = system: SR leukemia
SW-620 colon = system: SW-620 colon
T-47D breast = system: T-47D breast
TK-10 renal = system: TK-10 renal
U251 CNS = system: U251 CNS
UACC-257 melanoma = system: UACC-257 melanoma
UACC-62 melanoma = system: UACC-62 melanoma
UO-31 renal = system: UO-31 renal

Measured: TGI

CC[C@]1(Cc2ccc(OC)c(OC)c2)[C@@H]2C[C@@H](C(=O)OC)ON2O[C@H](OC2CCCC2(c2ccccc2)c2ccccc2)[C@@H]1OC(C)=O (some centres not stated)
> 100 µM: 786-0 renal | A549 NSCLC | ACHN renal | BT-549 breast | CAKI-1 renal | CCRF-CEM leukemia | COLO 205 colon | DU-145 prostate | EKVX NSCLC | HCT-116 colon | HCT-15 colon | HOP-62 NSCLC | HT29 colon | IGROV1 ovarian | K-562 leukemia | KM12 colon | LOX IMVI melanoma | M14 melanoma | MCF7 breast | MDA-MB-231 breast | MDA-MB-435 | MOLT-4 leukemia | NCI-H226 lung | NCI-H23 lung | NCI-H460 lung | NCI/ADR-RES ovarian | OVCAR-3 ovarian | OVCAR-5 ovarian | OVCAR-8 ovarian | RXF 393 renal | SF-268 CNS | SF-295 CNS | SK-MEL-2 melanoma | SK-MEL-28 melanoma | SK-MEL-5 melanoma | SK-OV-3 ovarian | SN12C renal | SNB-19 CNS | SNB-75 CNS | SR leukemia | SW-620 colon | T-47D breast | TK-10 renal | U251 CNS | UACC-257 melanoma | UACC-62 melanoma | UO-31 renal

Reference: PubChem BioAssay (NCI)
